# Experimental data as given in the supplement of paper PMC10307832.
# What was measured:
# Assay in all cases: relative viability (nuclei count vs DMSO), 5 days (fraction); higher = more cells survive
# A-427 = tested on: A-427
# How it was run: (§1)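 Nuclei were stained with Hoechst during a one-step fixation (final 0.05% Triton X-100, 1% formaldehyde, 1 ug/ml Hoechst) carried out 5 days after dosing, then counted on 4× images. The cells, lung cancer lines in 1536-well plates, had been dosed by pin tool the day after seeding with one drug alone or a fixed anchor-drug dose plus five library-drug doses (not always all listed) in √10 steps. Relative viability is the nuclei count in treated wells divided by that in vehicle wells, and each value is the median of duplicate plates.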
# BEN = tested on: BEN
# How it was run: as §1
# EKVX = tested on: EKVX
# How it was run: as §1
# LC-2-ad = tested on: LC-2-ad
# How it was run: as §1
# LCLC-97TM1 = tested on: LCLC-97TM1
# How it was run: as §1
# LOU-NH91 = tested on: LOU-NH91
# How it was run: as §1
# LU99A = tested on: LU99A
# How it was run: as §1
# NCI-H1355 = tested on: NCI-H1355
# How it was run: as §1
# NCI-H1650 = tested on: NCI-H1650
# How it was run: as §1
# NCI-H1666 = tested on: NCI-H1666
# How it was run: as §1
# NCI-H1915 = tested on: NCI-H1915
# How it was run: as §1
# NCI-H1993 = tested on: NCI-H1993
# How it was run: as §1
# NCI-H2228 = tested on: NCI-H2228
# How it was run: as §1
# NCI-H2347 = tested on: NCI-H2347
# How it was run: as §1
# NCI-H23 = tested on: NCI-H23
# How it was run: as §1
# NCI-H460 = tested on: NCI-H460
# How it was run: as §1
# NCI-H520 = tested on: NCI-H520
# How it was run: as §1
# NCI-H650 = tested on: NCI-H650
# How it was run: as §1
# NCI-H838 = tested on: NCI-H838
# How it was run: as §1
# PC-3 [JPC-3] = tested on: PC-3 [JPC-3]
# How it was run: as §1
# RERF-LC-KJ = tested on: RERF-LC-KJ
# How it was run: as §1
# SW 1573 = tested on: SW 1573
# How it was run: as §1
structure (smiles),measurement,setting,value
O=c1[nH]c2ccccc2n1C1CCN(CCCC(c2ccc(F)cc2)c2ccc(F)cc2)CC1 [Pimozide] + CC(C)C[C@H](NC(=O)[C@H](Cc1ccccc1)NC(=O)c1cnccn1)B(O)O [Bortezomib] (partner 0.002 µM),relative viability,A-427; first compound 0.08 µM,0.947
same,relative viability,A-427; first compound 0.253 µM,0.965
same,relative viability,A-427; first compound 0.8 µM,0.965
same,relative viability,A-427; first compound 2.53 µM,0.956
same,relative viability,A-427; first compound 8 µM,0.903
same,relative viability,BEN; first compound 0.08 µM,0.678
same,relative viability,BEN; first compound 0.253 µM,0.81
same,relative viability,BEN; first compound 0.8 µM,0.788
same,relative viability,BEN; first compound 2.53 µM,0.867
same,relative viability,BEN; first compound 8 µM,0.976
same,relative viability,EKVX; first compound 0.253 µM,1.11
same,relative viability,EKVX; first compound 0.8 µM,0.992
same,relative viability,EKVX; first compound 2.53 µM,0.994
same,relative viability,EKVX; first compound 8 µM,0.937
same,relative viability,LC-2-ad; first compound 0.08 µM,1.09
same,relative viability,LC-2-ad; first compound 0.253 µM,0.927
same,relative viability,LC-2-ad; first compound 0.8 µM,0.935
same,relative viability,LC-2-ad; first compound 2.53 µM,1.03
same,relative viability,LC-2-ad; first compound 8 µM,0.996
same,relative viability,LCLC-97TM1; first compound 0.08 µM,0.526
same,relative viability,LCLC-97TM1; first compound 0.253 µM,0.637
same,relative viability,LCLC-97TM1; first compound 0.8 µM,0.574
same,relative viability,LCLC-97TM1; first compound 2.53 µM,0.353
same,relative viability,LCLC-97TM1; first compound 8 µM,0.616
same,relative viability,LOU-NH91; first compound 0.08 µM,0.498
same,relative viability,LOU-NH91; first compound 0.253 µM,0.528
same,relative viability,LOU-NH91; first compound 0.8 µM,0.529
same,relative viability,LOU-NH91; first compound 2.53 µM,0.504
same,relative viability,LOU-NH91; first compound 8 µM,0.479
same,relative viability,LU99A; first compound 0.08 µM,1.17
same,relative viability,LU99A; first compound 0.253 µM,0.978
same,relative viability,LU99A; first compound 0.8 µM,1.09
same,relative viability,LU99A; first compound 2.53 µM,1.09
same,relative viability,LU99A; first compound 8 µM,0.929
same,relative viability,NCI-H1355; first compound 0.08 µM,1.18
same,relative viability,NCI-H1355; first compound 0.253 µM,1.2
same,relative viability,NCI-H1355; first compound 0.8 µM,1.05
same,relative viability,NCI-H1355; first compound 2.53 µM,1.19
same,relative viability,NCI-H1355; first compound 8 µM,1.19
same,relative viability,NCI-H1650; first compound 0.08 µM,0.23
same,relative viability,NCI-H1650; first compound 0.253 µM,0.204
same,relative viability,NCI-H1650; first compound 0.8 µM,0.188
same,relative viability,NCI-H1650; first compound 2.53 µM,0.177
same,relative viability,NCI-H1650; first compound 8 µM,0.178
same,relative viability,NCI-H1666; first compound 0.08 µM,0.823
same,relative viability,NCI-H1666; first compound 0.253 µM,0.744
same,relative viability,NCI-H1666; first compound 0.8 µM,0.761
same,relative viability,NCI-H1666; first compound 2.53 µM,0.7
same,relative viability,NCI-H1666; first compound 8 µM,0.626
same,relative viability,NCI-H1915; first compound 0.08 µM,0.947
same,relative viability,NCI-H1915; first compound 0.253 µM,0.908
same,relative viability,NCI-H1915; first compound 0.8 µM,0.537
same,relative viability,NCI-H1915; first compound 2.53 µM,0.936
same,relative viability,NCI-H1915; first compound 8 µM,0.918
same,relative viability,NCI-H1993; first compound 0.08 µM,0.89
same,relative viability,NCI-H1993; first compound 0.253 µM,1.03
same,relative viability,NCI-H1993; first compound 0.8 µM,0.986
same,relative viability,NCI-H1993; first compound 2.53 µM,1.07
same,relative viability,NCI-H1993; first compound 8 µM,1.01
same,relative viability,NCI-H2228; first compound 0.08 µM,1.11
same,relative viability,NCI-H2228; first compound 0.253 µM,0.858
same,relative viability,NCI-H2228; first compound 0.8 µM,0.904
same,relative viability,NCI-H2228; first compound 2.53 µM,0.728
same,relative viability,NCI-H2228; first compound 8 µM,0.559
same,relative viability,NCI-H2347; first compound 0.08 µM,1
same,relative viability,NCI-H2347; first compound 0.253 µM,0.858
same,relative viability,NCI-H2347; first compound 0.8 µM,0.748
same,relative viability,NCI-H2347; first compound 2.53 µM,0.955
same,relative viability,NCI-H2347; first compound 8 µM,0.883
same,relative viability,NCI-H23; first compound 0.08 µM,0.883
same,relative viability,NCI-H23; first compound 0.253 µM,1.04
same,relative viability,NCI-H23; first compound 0.8 µM,1.02
same,relative viability,NCI-H23; first compound 2.53 µM,0.757
same,relative viability,NCI-H23; first compound 8 µM,0.908
same,relative viability,NCI-H460; first compound 0.08 µM,1.09
same,relative viability,NCI-H460; first compound 0.253 µM,0.933
same,relative viability,NCI-H460; first compound 0.8 µM,0.992
same,relative viability,NCI-H460; first compound 2.53 µM,0.993
same,relative viability,NCI-H460; first compound 8 µM,1.04
same,relative viability,NCI-H520; first compound 0.08 µM,0.386
same,relative viability,NCI-H520; first compound 0.253 µM,0.538
same,relative viability,NCI-H520; first compound 0.8 µM,0.556
same,relative viability,NCI-H520; first compound 2.53 µM,0.437
same,relative viability,NCI-H520; first compound 8 µM,0.649
same,relative viability,NCI-H650; first compound 0.08 µM,0.797
same,relative viability,NCI-H650; first compound 0.253 µM,0.787
same,relative viability,NCI-H650; first compound 0.8 µM,0.704
same,relative viability,NCI-H650; first compound 2.53 µM,0.718
same,relative viability,NCI-H650; first compound 8 µM,0.747
same,relative viability,NCI-H838; first compound 0.08 µM,0.786
same,relative viability,NCI-H838; first compound 0.253 µM,0.737
same,relative viability,NCI-H838; first compound 0.8 µM,0.786
same,relative viability,NCI-H838; first compound 2.53 µM,0.745
same,relative viability,NCI-H838; first compound 8 µM,0.684
same,relative viability,PC-3 [JPC-3]; first compound 0.253 µM,0.803
same,relative viability,PC-3 [JPC-3]; first compound 0.8 µM,0.726
same,relative viability,PC-3 [JPC-3]; first compound 2.53 µM,0.884
same,relative viability,PC-3 [JPC-3]; first compound 8 µM,0.667
same,relative viability,RERF-LC-KJ; first compound 0.08 µM,1.1
same,relative viability,RERF-LC-KJ; first compound 0.253 µM,0.92
same,relative viability,RERF-LC-KJ; first compound 0.8 µM,0.949
same,relative viability,RERF-LC-KJ; first compound 2.53 µM,1.02
same,relative viability,RERF-LC-KJ; first compound 8 µM,0.92
same,relative viability,SW 1573; first compound 0.08 µM,1.09
same,relative viability,SW 1573; first compound 0.253 µM,1.02
same,relative viability,SW 1573; first compound 0.8 µM,0.898
same,relative viability,SW 1573; first compound 2.53 µM,0.894
same,relative viability,SW 1573; first compound 8 µM,0.963
